Values joined by “and” are separate entries in the source; they are usually repeats but may differ in a detail not shown here. Equal values may be shown once.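 1) Cells in 96-well plates. 2) Compound, 48 h, 5 concentrations. 3) Linear interpolation between surrounding doses. 4) Unreached endpoint = highest concentration. The concentration for 50% growth inhibition is given as GI50.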 Active and inactive are the calls of the source. No stated cut-off is given here; in the data, active = GI50 up to about 1.1 µM and inactive = higher.
What was measured:
Test in all cases: inhibition of tumour cell growth, NCI panel, 48 h
KM12 = tested on: KM12
SW-620 = tested on: SW-620
SK-MEL-2 = tested on: SK-MEL-2
UACC-257 = tested on: UACC-257
TK-10 = tested on: TK-10
RXF 393 = tested on: RXF 393
SNB-75 = tested on: SNB-75
MDA-MB-231 = tested on: MDA-MB-231
DU-145 = tested on: DU-145
EKVX = tested on: EKVX
CAKI-1 = tested on: CAKI-1
RPMI-8226 = tested on: RPMI-8226
786-0 = tested on: 786-0
HCT-15 = tested on: HCT-15
IGROV-1 = tested on: IGROV-1
NCI-H226 = tested on: NCI-H226
SK-OV-3 = tested on: SK-OV-3
SK-MEL-5 = tested on: SK-MEL-5
M14 = tested on: M14
SF-295 = tested on: SF-295

SMILES | GI50 (KM12) | GI50 (SW-620) | GI50 (SK-MEL-2) | GI50 (UACC-257) | GI50 (TK-10) | GI50 (RXF 393) | GI50 (SNB-75) | GI50 (MDA-MB-231) | GI50 (DU-145) | GI50 (EKVX) | GI50 (CAKI-1) | GI50 (RPMI-8226) | GI50 (786-0) | GI50 (HCT-15) | GI50 (IGROV-1) | GI50 (NCI-H226) | GI50 (SK-OV-3) | GI50 (SK-MEL-5) | GI50 (M14) | GI50 (SF-295)
COc1ccc(-c2c(C#N)c(N)n(C3OC(CO)C(O)C(O)C3O)c(=S)c2C#N)cc1 (stereo not drawn) | > 100 µM (inactive) | > 100 µM (inactive) and 73.1 µM (inactive) | 55.8 µM (inactive) and 30.4 µM (inactive) | > 100 µM (inactive) | > 100 µM (inactive) | > 100 µM (inactive) | > 100 µM (inactive) | > 100 µM (inactive) | > 100 µM (inactive) | 66.2 µM (inactive) | > 100 µM (inactive) | > 100 µM (inactive) | > 100 µM (inactive) | > 100 µM | 72.1 µM (inactive) | > 100 µM (inactive) | > 100 µM (inactive) | > 100 µM (inactive) and 74 µM (inactive) | > 100 µM (inactive) | 
C=C1CC2(OC1=O)c1ccccc1CCc1ccccc12 | 3.61 µM (inactive) | 1.59 µM (inactive) | 5.62 µM (inactive) | 3.82 µM (inactive) | 2.84 µM (inactive) | 1.66 µM (inactive) | 5.69 µM (inactive) | 9.27 µM (inactive) | 18.7 µM (inactive) | 7.38 µM (inactive) | 1.75 µM (inactive) | 2.07 µM (inactive) | 1.75 µM (inactive) | 1.91 µM | 7.23 µM (inactive) | 13.2 µM (inactive) | 17.7 µM (inactive) | 13.1 µM (inactive) | 1.97 µM (inactive) | 16.1 µM (inactive)
CS(=O)(=O)Nc1ccc(Nc2c3ccccc3nc3ccccc23)cc1 | 3.13 µM (inactive) | 1.11 µM (active) | 5.16 µM (inactive) | 1.36 µM (inactive) | 2.57 µM (inactive) | 5.73 µM (inactive) | 3.46 µM (inactive) | 3.56 µM (inactive) | 0.355 µM (active) | 4.55 µM (inactive) | 0.491 µM (active) | 2.04 µM (inactive) | 3.1 µM (inactive) | 2.31 µM | 2.09 µM (inactive) | 1.04 µM (active) | 1.89 µM (inactive) | 1.71 µM (inactive) | 3.37 µM (inactive) | 1.66 µM (inactive)
CC[C@H](C)c1occ2c(O)c(C(=O)O)c(=O)cc-2c1C | 18.5 µM (inactive) | 20.4 µM (inactive) | 17.3 µM (inactive) | 30.3 µM (inactive) | 40.8 µM (inactive) | 15.5 µM (inactive) | 55.6 µM (inactive) | 23 µM (inactive) | 34.9 µM (inactive) | 30.8 µM (inactive) | 37.8 µM (inactive) | 30.7 µM (inactive) | 40.1 µM (inactive) | 16.7 µM | 18.6 µM (inactive) | 33.8 µM (inactive) | 26.1 µM (inactive) | 18.3 µM (inactive) | 31.5 µM (inactive) | 31.3 µM (inactive)
Oc1ccc[nH]c1=[Se] | 45.5 µM (inactive) | 77.6 µM (inactive) | > 100 µM (inactive) | > 100 µM (inactive) | 55.3 µM (inactive) | > 100 µM (inactive) | 92.3 µM (inactive) | > 100 µM (inactive) | 62.2 µM (inactive) | 25.8 µM (inactive) | 69.7 µM (inactive) | 40.6 µM (inactive) | 16 µM (inactive) | 44.4 µM | 66.7 µM (inactive) | > 100 µM (inactive) | 87.1 µM (inactive) | 39.4 µM (inactive) | 47.6 µM (inactive) | 29.3 µM (inactive)
O=C(CP(c1ccccc1)c1ccccc1)c1cccc(C(=O)CP(c2ccccc2)c2ccccc2)c1 | 26.1 µM (inactive) | > 100 µM (inactive) | > 100 µM (inactive) | 32.1 µM (inactive) | > 100 µM (inactive) | 61.7 µM (inactive) | 55.6 µM (inactive) | 68.9 µM (inactive) | 55.8 µM (inactive) | 56.9 µM (inactive) | 86.3 µM (inactive) | 12.6 µM (inactive) | 85.7 µM (inactive) | 49.3 µM | > 100 µM (inactive) | 66.4 µM (inactive) | > 100 µM (inactive) | 23.4 µM (inactive) | 52.6 µM (inactive) | 26.1 µM (inactive)
CCCc1nnc2sc(COc3cc(Cl)c(OCc4nn5c(CCC)nnc5s4)cc3Cl)nn12 | 70.1 µM (inactive) | > 100 µM (inactive) | > 100 µM (inactive) | 34.1 µM (inactive) | 52 µM (inactive) | 31.6 µM (inactive) | 21.7 µM (inactive) | 47.1 µM (inactive) | 47 µM (inactive) | 22.6 µM (inactive) | 38.5 µM (inactive) | 0.0885 µM (active) | 35.7 µM (inactive) | 0.904 µM | 25.2 µM (inactive) | > 100 µM (inactive) | 24.5 µM (inactive) | 12.3 µM (inactive) | 44.7 µM (inactive) | 28.6 µM (inactive)
CC1(c2ccccc2)CCN(C2CC2)CO1 (stereo not drawn) | 14.9 µM (inactive) | 19 µM (inactive) | > 100 µM (inactive) | 22.4 µM (inactive) | 13.8 µM (inactive) | 26.9 µM (inactive) | 64.9 µM (inactive) | 19.3 µM (inactive) | 29.6 µM (inactive) | 20.1 µM (inactive) | 18.8 µM (inactive) | 19.8 µM (inactive) | 11.4 µM (inactive) | 16.5 µM | 19.6 µM (inactive) | > 100 µM (inactive) | > 100 µM (inactive) | > 100 µM (inactive) | 16.9 µM (inactive) | > 100 µM (inactive)
Cc1csc(CP(=O)(OC(C)C)OC(C)C)n1 |  | > 100 µM (inactive) | > 100 µM (inactive) | > 100 µM (inactive) | > 100 µM (inactive) | > 100 µM (inactive) | > 100 µM (inactive) | > 100 µM (inactive) | > 100 µM (inactive) | > 100 µM (inactive) | > 100 µM (inactive) | > 100 µM (inactive) | > 100 µM (inactive) | > 100 µM | > 100 µM (inactive) | > 100 µM (inactive) | > 100 µM (inactive) | > 100 µM (inactive) | > 100 µM (inactive) | > 100 µM (inactive)
NC(CCC(=O)NC(CSCC1C(=O)Nc2ccccc21)C(=O)NCC(=O)O)C(=O)O (stereo not drawn) | 9.82 µM (inactive) | 4.28 µM (inactive) | 9.53 µM (inactive) | 8.11 µM (inactive) | 7.52 µM (inactive) | 0.855 µM (active) | 2.67 µM (inactive) | 7.53 µM (inactive) | 6.17 µM (inactive) | 11.9 µM (inactive) | 4.41 µM (inactive) | 2.02 µM (inactive) | 3.87 µM (inactive) | 4.72 µM | 5.52 µM (inactive) | 7.23 µM (inactive) | 21 µM (inactive) | 14.8 µM (inactive) | 5.21 µM (inactive) | 15.5 µM (inactive)
CC1=C(CO)C(=O)O[C@@H]([C@@H](CO)[C@H]2CCC3C4C[C@@H](O)[C@@]5(O)CC=CC(=O)[C@]5(C)C4CC[C@@]32C)C1 (stereo partly drawn) | 43.3 µM (inactive) | 29 µM (inactive) | 53.6 µM (inactive) | 58.6 µM (inactive) | > 100 µM (inactive) | 15.2 µM (inactive) | 35.6 µM (inactive) | 59.2 µM (inactive) | > 100 µM (inactive) | > 100 µM (inactive) | > 100 µM (inactive) | 34.3 µM (inactive) | 28.6 µM (inactive) | 32 µM | > 100 µM (inactive) | > 100 µM (inactive) | > 100 µM (inactive) | 51.4 µM (inactive) | 53.7 µM (inactive) | > 100 µM (inactive)
COc1ccc(C2c3cc4c(cc3OC(NNc3ccccc3)C2C)OCO4)cc1 (stereo not drawn) | 2.91 µM (inactive) | 21.7 µM (inactive) | 21.7 µM (inactive) | 5.79 µM (inactive) | 8.97 µM (inactive) | 8.51 µM (inactive) | 22.6 µM (inactive) | 23.2 µM (inactive) | 5.52 µM (inactive) | 3.75 µM (inactive) | 5.89 µM (inactive) | 4.47 µM (inactive) | 22.1 µM (inactive) | 1.05 µM | 7.31 µM (inactive) | 16.3 µM (inactive) | > 100 µM (inactive) | 17.9 µM (inactive) | 6.14 µM (inactive) | 2.08 µM (inactive)
c1nc(NCCc2c[nH]cn2)c2nc[nH]c2n1 | > 100 µM (inactive) | > 100 µM (inactive) | > 100 µM (inactive) | > 100 µM (inactive) | > 100 µM (inactive) | > 100 µM (inactive) | 64.3 µM (inactive) | > 100 µM (inactive) | > 100 µM (inactive) | 46.2 µM (inactive) | > 100 µM (inactive) | > 100 µM (inactive) | > 100 µM (inactive) | > 100 µM | > 100 µM (inactive) | 91.6 µM (inactive) | > 100 µM (inactive) | > 100 µM (inactive) | > 100 µM (inactive) | > 100 µM (inactive)
COC(=O)C1OC(O[C@H]2CC[C@]3(C)[C@H]4CC=C5[C@@H]6CC(C)(C)CC[C@]6(C(=O)OC6OCC(O)C(O)C6OC6OC(C)C(OC7OCC(OC8OCC(O)C(O)C8O)C(O)C7O)C(O)C6O)[C@H](O)C[C@@]5(C)[C@]4(C)CC[C@H]3C2(C)C)C(O)C(O)C1O (stereo partly drawn) | 3.72 µM (inactive) | 5.14 µM (inactive) | 3.02 µM (inactive) | 3.09 µM (inactive) | 9.51 µM (inactive) | 11.4 µM (inactive) | 3.44 µM (inactive) | 2.71 µM (inactive) | 2.13 µM (inactive) | 2.32 µM (inactive) | 2.87 µM (inactive) | 5.5 µM (inactive) | 6.32 µM (inactive) | 10.6 µM | 4.57 µM (inactive) | 1.52 µM (inactive) | 14.9 µM (inactive) | 3.4 µM (inactive) | 1.85 µM (inactive) | 3.05 µM (inactive)

— ChEMBL document CHEMBL1201862, “PubChem BioAssay data set” (2004)
